Where “and” joins values, the source holds several entries; their conditions need not be identical. Identical values can stand only once. Calls of active or inactive are those of the source.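 The calls were made as follows: active = compounds giving half or more protection of infected cells from virus-caused growth loss, again on retest; inactive = the rest.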
Tested on: CEM cells HIV-1 protection, formazan growth assay
Test: NCI AIDS Antiviral Assay
Details: for IC50: measured here: growth of uninfected CEM cells
Method in brief: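 Human CEM cells, uninfected and HIV-1-infected, exposed to five drug concentrations; growth measured by soluble formazan assay and scored as percent protection from infection, with protecting compounds retested.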

In the case of Cc1c(NC(=S)Nc2ccc(Cl)cc2)c(=O)n(-c2ccccc2)n1C, the EC50 is reported as > 200 µM and the IC50 is reported as > 200 µM.

In the case of [O-][n+]1ccccc1CCN(O)Cc1ccccc1, the EC50 is reported as > 200 µM and the IC50 is reported as > 200 µM.

C[C@]12CCC(=O)C(O)=C1CC[C@@H]1C2CC[C@]2(C)NC(=O)CCC12 (stereo partly specified) was tested, and the EC50 was > 40.7 µM and the IC50 was > 40.7 µM.

With N#C/C(=C\c1cccc(Br)c1)c1nc2ccccc2c(=O)[nH]1 the outcome was “inactive”.

For O=C1OC2(CC1C1(O)C3CC4CC(C3)CC1C4)C1CC3CC(C1)CC2C3 (stereo unspecified), the EC50 was > 100 µM and the IC50 was 38.9 µM.

For CCCCC(=O)N1C(=O)/C(=C\N(C)C)c2cc(C=O)ccc21, the EC50 was > 200 µM and the IC50 was 29.5 µM.

In the case of NS(=O)(=O)c1ccc(NC(=O)Cc2nc3ccccc3s2)cc1, the EC50 is reported as > 195 µM and the IC50 is reported as 14.1 µM.

For CC1=Nc2ccccc2S/C1=C(/C)NNC(=O)C(N)=O, the EC50 was > 89.1 µM and the IC50 was > 89.1 µM.

CCOC(=N)n1c(=O)n(C2=NCCN2)c2ccccc21 was tested, and the EC50 was > 200 µM and the IC50 was 123 µM.

For CC12CC3CC/C(=N\O)C(C1)C3(N1CCOCC1)C/C2=N/O (stereo unspecified), the EC50 was > 200 µM and the IC50 was > 200 µM.

In the case of COc1c(Cl)cc(C(=CCCNC(=O)C[C@H]2CC[C@@]3(C)[C@@H](CC[C@@H]4[C@@H]3CC[C@]3(C)[C@@H](CC(=O)NCCC=C(c5cc(Cl)c(OC)c(C(=O)O)c5)c5cc(Cl)c(OC)c(C(=O)O)c5)CC[C@@H]43)C2)c2cc(Cl)c(OC)c(C(=O)O)c2)cc1C(=O)O, the EC50 is reported as > 200 µM and the IC50 is reported as 148 µM.

With CCCCN(CCCC)C(=O)COc1cc2c(O)c3c(O)c(C)c4c(c13)C(=O)C(C)(O/C=C/C(OC)C(C)C(OC(C)=O)C(C)C(O)C(C)C(O)C(C)/C=C/C=C(\C)C(=O)N2)O4 (stereo unspecified) the EC50 was > 91.2 µM and the IC50 was 11 µM.

O=C1C=CC(=O)c2c1ccc1c3ccccc3n(CCCCCCCCCCCCn3c4ccccc4c4ccc5c(c43)C(=O)C=CC5=O)c21 was tested, and the EC50 was > 100 µM and the IC50 was 72.4 µM.

In the case of CC(=O)N1CCC2(c3ccccc3N(C(C)=O)C2c2ccc(O)cc2)C1C(=O)O (stereo unspecified), the outcome is reported as “inactive”.

Nc1nc2c(ccc3ccccc32)[nH]1 was tested, and the outcome was “inactive”.

In the case of CCC[CH2][Sn]([CH2]CCC)([S]CCS(=O)(=O)O)[S]CCS(=O)(=O)O (tested in a mixture with another compound), the EC50 is reported as > 200 µM and the IC50 is reported as > 200 µM.

C=CCNC(=S)/N=C/C(C(=O)Nc1ccccc1OC)=C(\C)O was tested, and the outcome was “inactive”.

For CN1CCN(CCSC2Cc3cc(Cl)ccc3Sc3ccccc32)CC1 (stereo unspecified), the EC50 was > 64.6 µM and the IC50 was 7.76 µM.

O=C1CCC(=O)N1n1c(Cc2ccc(Cl)cc2)n[nH]c1=O was tested, and the EC50 was > 200 µM and the IC50 was > 200 µM.

For CC(C)C1(Cl)CCC2C3(C)CCCC(C)(C(=O)O)C3CC(Cl)C2(Cl)C1Cl (stereo unspecified), the EC50 was > 200 µM and the IC50 was 41.7 µM.

With Cn1cc(NC(=O)c2cc(NC(=O)[C@@H]3CCC(N)=N3)c[nH]2)cc1C(=O)NCCC(=N)N the outcome was “inactive”.

In the case of C[Si](C)(C)OC=C1CCCCC1, the EC50 is reported as > 200 µM and the IC50 is reported as > 200 µM.

With CC(=O)[O-].CC(=O)[O-].O=C(N/N=C/c1cc(Cl)cc(Cl)c1O)c1ccncc1.[Ni+2] the outcome was “inactive”.

With CCOP(=O)(OCC)Oc1ccc(Sc2ccc(OP(=O)(OCC)OCC)cc2)cc1 the EC50 was > 200 µM and the IC50 was 85.1 µM.

With Cc1cc(Cl)ccc1NC(=O)C(=O)Cc1nc2ccccc2o1 the EC50 was > 11.5 µM and the IC50 was > 11.5 µM.

Cc1ccc(Nc2nc(-c3ccc(-c4ccc([N+](=O)[O-])cc4)o3)cs2)cc1 was tested, and the EC50 was > 10 µM and the IC50 was > 10 µM.

In the case of CC(C)OC(=O)c1ccc(NCC2=CC(=O)C=CC2=O)cc1, the EC50 is reported as > 200 µM and the IC50 is reported as 7.76 µM.

For COc1cc2c(cc1OC)C(C1(O)CCCCC1)NCC2 (stereo unspecified), the EC50 was > 851 µM and the IC50 was 457 µM.

With O=C(CN1CCCC1)Nc1ccc2c(c1)C1Oc3ccccc3CC1CO2 (stereo unspecified) the outcome was “inactive”.

In the case of N#CCCN(CCC#N)c1ccc(/C=C2\N=C(c3ccccc3)N(c3ccc(F)cc3)C2=O)cc1, the EC50 is reported as > 200 µM and the IC50 is reported as > 200 µM.

CC(C)CCCC(C)[C@H]1CC[C@H]2[C@@H]3CC[C@H]4C[C@@H](CCC=C(c5cc(Cl)c(OCc6cccc(C(=O)O)c6)c(C(=O)O)c5)c5cc(Cl)c(OCc6cccc(C(=O)O)c6)c(C(=O)O)c5)CC[C@]4(C)[C@H]3CC[C@]12C (stereo partly specified) was tested, and the EC50 was 5.5 µM and 1.78 µM and the IC50 was > 200 µM.

CSc1ccc(/C=C/c2ccnc3ccccc23)cc1 was tested, and the EC50 was > 13.5 µM and the IC50 was > 13.5 µM.

In the case of CC(=O)C(=Cc1cccc(Br)c1)C(C)=O, the EC50 is reported as > 135 µM and the IC50 is reported as 7.41 µM.

With CC(=O)OCC1OC(n2c3c(cc(C#N)c2=S)CCCC3)C(OC(C)=O)C(OC(C)=O)C1OC(C)=O (stereo unspecified) the EC50 was > 200 µM and the IC50 was 87.1 µM and > 200 µM.

For N=C(N)c1ccc2oc3ccc(C(=N)N)cc3c(=O)c2c1, the outcome was “inactive”.

In the case of O=C(NNC(=S)NCc1ccccc1)C12CC3CC(CC(C3)C1)C2, the EC50 is reported as > 200 µM and the IC50 is reported as 25.1 µM.

In the case of Brc1cc2c(cc1C1SCCS1)OCO2, the EC50 is reported as > 107 µM and the IC50 is reported as 60.3 µM.

N#Cc1ncn(-c2ccccc2)c1N was tested, and the EC50 was > 200 µM and the IC50 was > 200 µM.

In the case of Cc1oc2c(c1C)S(=O)(=O)C(C#N)=C(N(C)C)N2, the EC50 is reported as > 200 µM and the IC50 is reported as > 200 µM.

With O=C1OC(c2ccccc2)(c2ccccc2)c2ccsc21 the EC50 was > 200 µM and the IC50 was 69.2 µM.

With NNC(=O)CC(=O)N(C(=O)c1ccccc1)c1ccc(Cl)cc1 the EC50 was > 200 µM and the IC50 was > 200 µM.

COc1ccc2nc3cc([N+](=O)[O-])ccc3c(NCCCCCN(C)C)c2c1 was tested, and the EC50 was > 2 µM and the IC50 was 0.138 µM.

— PubChem BioAssay AID179 (DTP/NCI, 2004)
